# Measured values taken from patent US9085786B2, “Process for the production of polyamines” (BASF SE, priority 2009, dated 2015).
# T1: AOX (alcohol oxidase) (Komagataella phaffii, UniProt P04842)
# T1 sequence (P04842 1-663): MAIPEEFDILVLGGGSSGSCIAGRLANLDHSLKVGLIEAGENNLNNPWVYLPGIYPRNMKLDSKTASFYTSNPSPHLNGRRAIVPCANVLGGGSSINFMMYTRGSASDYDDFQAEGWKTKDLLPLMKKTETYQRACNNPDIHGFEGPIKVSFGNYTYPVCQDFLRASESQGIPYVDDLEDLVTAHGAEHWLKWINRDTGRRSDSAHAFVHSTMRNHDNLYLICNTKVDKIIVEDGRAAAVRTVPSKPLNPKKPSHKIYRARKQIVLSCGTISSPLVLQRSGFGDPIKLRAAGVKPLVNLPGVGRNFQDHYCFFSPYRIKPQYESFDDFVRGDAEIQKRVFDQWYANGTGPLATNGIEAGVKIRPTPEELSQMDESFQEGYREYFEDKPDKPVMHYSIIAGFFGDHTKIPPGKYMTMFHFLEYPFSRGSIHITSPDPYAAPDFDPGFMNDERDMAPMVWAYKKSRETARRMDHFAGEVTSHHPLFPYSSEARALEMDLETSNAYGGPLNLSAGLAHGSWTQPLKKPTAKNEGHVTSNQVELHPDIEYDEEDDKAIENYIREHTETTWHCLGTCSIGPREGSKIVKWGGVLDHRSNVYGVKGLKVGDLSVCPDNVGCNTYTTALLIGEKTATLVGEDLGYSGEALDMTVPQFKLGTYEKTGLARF
# B1: AOX (alcohol oxidase) (Komagataella phaffii GS115) (protein)
# chain: T1 sequence (P04842 1-663)
# Key:
# [1] = test system: HLADH (Horse Liver Alcohol Dehydrogenase); assay: Kinetic constants for HLADH, spectrophotometric assay of NADH formation at 340 nm; format: biochemical, Equus caballus; conditions: for Km / Vmax / Relative activity: pH 9.1, 100 mM CHES-buffer; for Km / Vmax: compound as substrate; for Relative activity: ethanol = 100; for E-value: pH 9.1, preference of one enantiomer over the other, ratio of specificity constants kcat/Km
# From the text: In the HLADH approach cofactor regeneration is accomplished by the use of vinyl acetate. Vinyl acetate rapidly hydrolyzes at pH 9.1, decomposing into acetic acid and acetic aldehyde. The aldehyde can be reduced by HLADH into ethanol, thereby forming NAD^+ from NADH. Unreacted acetic aldehyde can be removed by bubbling N2 after deactivating the enzyme with EDTA or H2O2. For the alcohol dehydrogenase HLADH the reaction was spectrophotometrically followed by the formation of NADH at 340 nm. Different concentrations of the various amino alcohols were used to obtain the Michaelis-Menten kinetic constants.
# This reaction was performed at pH 9.1. The enzyme was obtained from commercially available from Sigma Aldrich.
# Reaction catalysed by HLADH was followed spectrophotometrically at 340 nm, by the formation of NADH.
# AOX (alcohol oxidase) = molecular target: T1, AOX (alcohol oxidase); format: biochemical; conditions: for Relative activity / Vmax: pH 7.0, 100 mM MOPS-buffer; for Relative activity: ethanol = 100; for Vmax: compound as substrate
# From the text: In the AOX approach cofactor regeneration is not required. The reaction is further driven by the Catalase-catalyzed decomposition of hydrogen peroxide. […]
# The enzyme was obtained from commercially available from Sigma Aldrich.
# Reaction followed […] preference of one enantiomer over the other as substrate, as defined by the division of the specificity constants. The specificity constant is defined as kcat/Km.
# [2] = substrate: CCO; assay: purified protein, by the assay type; conditions: other: AOX, pH 7.0, 100 mM MOPS-buffer, compound as substrate
molecule,measurement,setting,value
NC[C@@H](O)c1ccccc1 [S-2-Amino-1-phenyl-ethanol],Km,[1],6.2 mM
same,Vmax,[1],0.21 µmol/min/mg
same,Relative activity,[1],14%
NC[C@H](O)c1ccccc1 [R-2-Amino-1-phenyl-ethanol],Vmax,[1],<0.002 µmol/min/mg
same,Relative activity,[1],~0%
same,E-value,[1],>100
"CC(O)CN (racemic) [1-Amino-propan-2-ol (rac), 1-Amino-propan-2-ol]",Relative activity,AOX (alcohol oxidase),0%
same,Vmax,[1],0 µmol/min/mg
same,Relative activity,[1],0%
NCCCO [3-Amino-propan-1-ol],Vmax,AOX (alcohol oxidase),0.021 µmol/min/mg
same,Relative activity,AOX (alcohol oxidase),0.18%
same,Km,[1],13 mM
same,Vmax,[1],0.17 µmol/min/mg
same,Relative activity,[1],11%
NCC(O)c1ccccc1 (stereo not drawn) [2-Amino-1-phenyl ethanol],Catalysis of the reaction and appearance of aldehyde,"AOX (alcohol oxidase); ABTS replaced by pyrogallol or purpald, rates not reproducible",the enzyme was catalysing the reaction and the appearance of aldehyde
C[C@@H](N)CO [R-2-Amino-propan-1-ol],Vmax,AOX (alcohol oxidase),0.10 µmol/min/mg
same,Relative activity,AOX (alcohol oxidase),0.88%
same,E-value,"AOX (alcohol oxidase); pH 7.0, preference of one enantiomer over the other, ratio of specificity constants kcat/Km",3.6
same,Vmax,[1],<0.0007 µmol/min/mg
same,Relative activity,[1],~0%
same,E-value,[1],>300
"CCO [Ethanol, reference compound]",Relative activity,AOX (alcohol oxidase),100%
same,Km,[1],0.6 mM
same,Vmax,[1],1.5 µmol/min/mg
same,Relative activity,[1],100%
NCCO [2-Amino-ethanol],Vmax,AOX (alcohol oxidase),Very low
same,Relative activity,AOX (alcohol oxidase),~0%
same,Vmax,[1],<0.005 µmol/min/mg
same,Relative activity,[1],~0%
C[C@H](N)CO [S-2-Amino-propan-1-ol],Vmax,AOX (alcohol oxidase),0.37 µmol/min/mg
same,Relative activity,AOX (alcohol oxidase),3.2%
same,Km,[1],6.3 mM
same,Vmax,[1],0.21 µmol/min/mg
same,Relative activity,[1],14%
B1,Km,[2],1.3 mM
same,Vmax,[2],12 µmol/min/mg
